# Paper PMC3871589, “Evaluation of STAT3 Signaling in ALDH+ and ALDH+/CD44+/CD24− Subpopulations of Breast Cancer Cells” (PLoS ONE, 2013)
# Tests used:
# Type in all cases: cell-based, human
# [1] = tested on: ALDH+ subpopulations of SK-BR-3, MDA-MB-231, and SUM159; test: Tumorsphere formation, ALDH+ subpopulations; details: 2.5–10 µmol/L, 10 to 15 days
# Procedure: ALDH^+ and ALDH^+/CD44^+/CD24^− cells were plated as single cells in ultra-low attachment six-well plates at a density of 250, 500, 1000 or 50,000 viable cells/well as previously described. On the second day after seeding, the ALDH^+ cancer cells were treated with 2.5–10 µmol/L of LLL12 or Stattic. For tumorsphere forming capacity assay, ALDH^+ or ALDH^− cells were plated as single cells in ultra-low attachment six-well plates at a density of 250, 500 or 1000 viable cells/well. Tumorsphere growth was observed under a microscope 10 to 15 days later.
# [2] = tested on: STAT3 phosphorylation (Y705); test: Western blot of STAT3 phosphorylation in ALDH+ cells; details: LLL12 5 µmol/L or Stattic 10 µmol/L 24 hours, ShRNA 48 hours then puromycin
# Procedure: (§1) The ALDEFLUOR kit (StemCell Technologies) was used to isolate the population with high ALDH enzymatic activity as previously described. Briefly, cells were trypsinized to single cells using 0.05% trypsin and subsequently suspended in ALDEFLUOR assay buffer containing ALDH substrate (BAAA, 1 µmol/l per 1×10^6 cells) and then incubated for 40 minutes at 37°C. For each sample, an aliquot of cells was stained under identical conditions with 15 mmol/L diethylaminobenzaldehyde (DEAB), a specific ALDH inhibitor, as an ALDH^− control. Anti-human PE-CD24 and PE-Cy5-CD44 antibody (BioLegend) were used for CD44/CD24 identification and to separate ALDH^+/CD44^+/CD24^− and ALDH^−/CD44^+/CD24^+ cells when combined with ALDH staining. Analysis was performed using a FACStarPLUS (Becton Dickinion) flow cytometer. To assess the effect of STAT3 inhibitors on the subpopulation of ALDH^+ cells, un-separated breast cancer cells were treated with 5 µmol/L of LLL12 or 10 µmol/L Stattic for 24 hours prior to performing the ALDEFLUOR assay.
# After sorting by flow cytometry, ALDH^+ and ALDH^+/CD44^+/CD24^− stem-like cells were cultured in serum-free stem cell medium in ultra-low attachment six-well plates (Corning) to maintain cancer stem cell characteristics. […]
# [3] = tested on: ALDH− cells; test: MTT cell viability assay, ALDH− subpopulation; details: Figure S4
# Procedure: (§2) The breast cancer cells were seeded in 96-well plates (3,000 cells/well) in triplicates in a serum-free mammary epithelial basal medium. The following day, cancer cells were treated with 1 to 10 µmol/L of LLL12 or Stattic for 72 hours, STAT3 ShRNA or control GFP shRNA lentivirus (CTL ShRNA) for 48 hours. MTT (Thiazolyl Blue Tetrazolium Bromide, Sigma-Aldrich) assay was used to determine the cell viability.
# [4] = tested on: ALDH+ subpopulation from MDA-MB-231, SUM159, and SK-BR3 cells; test: MTT cell viability assay, ALDH+ subpopulation; details: 1 to 10 µmol/L 72 hours, ShRNA 48 hours
# Procedure: as §2
# [5] = tested on: ERK1/2 phosphorylation; test: ERK1/2 phosphorylation in ALDH+ cells; details: ALDH+ breast cancer stem-like cells; 10 µmol/L, 24 hours
# Procedure: After sorting by flow cytometry, ALDH^+ and ALDH^+/CD44^+/CD24^− stem-like cells were cultured in serum-free stem cell medium in ultra-low attachment six-well plates (Corning) to maintain cancer stem cell characteristics. ALDH^−, ALDH^−/CD44^+/CD24^+cells and un-separated cells were cultured in regular medium and replaced with identical stem cell medium for three days before being harvested. To assess the effects of STAT3 inhibitors, ALDH^+ and ALDH^+/CD44^+/CD24^− subpopulations of breast cancer cells were treated with LLL12 (5 µmol/L) of or static (10 µmol/L) for 24 hours. STAT3, or control GFP shRNA lentivirus (CTL ShRNA) was introduced into ALDH^+ breast cancer stem-like cells for 48 hours, then followed by selection with puromycin (0.2 µg/ml) for 72 hours. Antibodies (Cell Signaling Tech.) against phospho-specific STAT3 (Tyrosine 705) (P-STAT3, Y705), ERK1/2 (Threonine 202/Tyrosine 204), cleaved Poly (ADP-ribose) polymerase (PARP), ALDH1, cleaved caspase-3, and GAPDH were used for western blots.
# [6] = tested on: ALDH+ subpopulation in MDA-MB-231, SUM159, and SK-BR3 cancer cells; test: ALDEFLUOR assay, percentage of ALDH+ subpopulation; details: un-separated MDA-MB-231, SUM159, SK-BR3; LLL12 5 µmol/L or Stattic 10 µM, 24 hours
# Procedure: as §1
structure (smiles),measurement,setting,value
"O=[N+]([O-])c1ccc2c(c1)S(=O)(=O)C=C2 [Stattic, reference compound]",tumorsphere formation,[1],suppress
same,STAT3 phosphorylation in ALDH+ cells,[2],reduced
same,effects against the ALDH− cells (cell viability),[3],some inhibitory effects
same,cell viability of the ALDH+ subpopulation,[4],inhibit
same,ERK1/2 phosphorylation,[5],not
same,ALDH+ subpopulation (percentage),[6],decreased
